Biological target: recombinant human PKR enzyme (Homo sapiens (Human), UniProt P30613)
Assay: Pyruvate kinase (PKR) activity experiment
Format: biochemical
Conditions: activation of recombinant human PKR enzyme
Protocol: • 1). A recombinant human PKR enzyme solution was formulated at a concentration of 60 ng/well (a 20 μL reaction system), and 5 μL of the solution was added into each well of a black transparent bottom 384-well plate. • 2). Compound solutions were formulated at different concentrations, with the final concentrations of 1000/300/100 nM (containing 1% DMSO). Each 5 μL of the compound solution was added into the plate in item 3.1 and mixed well. The plate was incubated at room temperature for 10 min. • 3). A reaction system was formulated according to the instructions of a kit (as shown in the table below), and 10 μL of the reaction system was added into each well of the 384-well plate, and mixed uniformly with the solution in item 3.2.
• 4). The 384-well plate was placed on a microplate reader to detect the fluorescence value at 540/590 nm, where the value was read every 2 minutes and the detection was conducted continuously for 1 hour. • 5). The Slope value within the detection time was calculated, and the 0.1% DMSO well was used as a control well to calculate a compound activation rate.
[formula] • 6). Fitting dose-effect curve
With the log value of the compound concentration as the X axis and the percentage activation rate as the Y axis, a dose-effect curve was fitted with the log(agonist) vs. response-variable slope of the analysis software GraphPad Prism 5, and the AC50 value of the activity of each compound against PKR was obtained.

Chain of recombinant human PKR enzyme (P30613 whole entry): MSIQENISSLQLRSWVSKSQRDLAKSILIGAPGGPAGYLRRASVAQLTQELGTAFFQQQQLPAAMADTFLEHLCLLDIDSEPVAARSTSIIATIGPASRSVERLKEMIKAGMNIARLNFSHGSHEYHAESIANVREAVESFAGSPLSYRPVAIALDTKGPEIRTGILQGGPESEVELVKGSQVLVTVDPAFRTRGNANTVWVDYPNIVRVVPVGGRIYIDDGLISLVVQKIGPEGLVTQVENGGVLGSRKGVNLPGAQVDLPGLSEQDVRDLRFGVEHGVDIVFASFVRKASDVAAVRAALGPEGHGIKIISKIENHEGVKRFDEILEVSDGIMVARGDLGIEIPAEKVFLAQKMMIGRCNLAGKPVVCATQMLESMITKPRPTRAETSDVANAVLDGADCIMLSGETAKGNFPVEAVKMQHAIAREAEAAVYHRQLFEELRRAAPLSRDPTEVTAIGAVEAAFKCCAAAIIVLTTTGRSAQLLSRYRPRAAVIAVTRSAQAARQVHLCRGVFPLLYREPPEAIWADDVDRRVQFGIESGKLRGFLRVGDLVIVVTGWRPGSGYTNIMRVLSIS

Row | AC50 [nM] | Compound
1 | 300 to 1000 | CN(C)CC(C(=O)N1CC(=C2CN(S(=O)(=O)c3ccc4ncsc4c3)C2)C1)c1ccc(F)c(Cl)c1 (centres unmarked) [Compound 42, 1-(1′-(benzo[d]thiazol-6-ylsulfonyl)-1′,4′-dihydro-2H,2′H-[3,3′-diazetidinylidene]-1(4H)-yl)-2-(3-chloro-4-fluorophenyl)-3-(dimethylamino)propan-1-one]
2 | 300 to 1000 | CN1CCN(c2cccc(C(O)C(=O)N3CC(=C4CN(S(=O)(=O)c5ccc6ncsc6c5)C4)C3)c2)CC1 (centres unmarked) [Compound 43, 1-(1′-(benzo[d]thiazol-6-ylsulfonyl)-1′,4′-dihydro-2H,2′H-[3,3′-diazetidinylidene]-1(4H)-yl)-2-hydroxy-2-(3-(4-methylpiperazin-1-yl)phenyl)ethan-1-one]
3 | < 100 | COc1ccc(C(CO)C(=O)N2CC(=C3CN(S(=O)(=O)c4ccc5ncsc5c4)C3)C2)cc1 (centres unmarked) [Compound 44, 1-(1′-(benzo[d]thiazol-6-ylsulfonyl)-1′,4′-dihydro-2H,2′H-[3,3′-diazetidinylidene]-1(4H)-yl)-3-hydroxy-2-(4-methoxyphenyl)propan-1-one]
4 | < 100 | Cc1ccc(C(CO)C(=O)N2CC(=C3CN(S(=O)(=O)c4ccc5ncsc5c4)C3)C2)cc1 (centres unmarked) [Compound 45, 1-(1′-(benzo[d]thiazol-6-ylsulfonyl)-1′,4′-dihydro-2H,2′H-[3,3′-diazetidinylidene]-1(4H)-yl)-3-hydroxy-2-(p-tolyl)propan-1-one]
5 | < 100 | O=C(C(CO)c1cccc(F)c1)N1CC(=C2CN(S(=O)(=O)c3ccc4ncsc4c3)C2)C1 (centres unmarked) [Compound 46, 1-(1′-(benzo[d]thiazol-6-ylsulfonyl)-1′,4′-dihydro-2H,2′H-[3,3′-diazetidinylidene]-1(4H)-yl)-2-(3-fluorophenyl)-3-hydroxypropan-1-one]
6 | 101 to 300 | O=C(C(CO)c1cccnc1)N1CC(=C2CN(S(=O)(=O)c3ccc4ncsc4c3)C2)C1 (centres unmarked) [Compound 48, 1-(1′-(benzo[d]thiazol-6-ylsulfonyl)-1′,4′-dihydro-2H,2′H-[3,3′-diazetidinylidene]-1(4H)-yl)-3-hydroxy-2-(pyridin-3-yl)propan-1-one]
7 | < 100 | O=C([C@H](CO)c1ccccc1)N1CC(=C2CN(S(=O)(=O)c3ccc4c(n3)OCCO4)C2)C1 [Compound 49, (S)-1-(1′-((2,3-dihydro-[1,4]dioxino[2,3-b]pyridin-6-yl)sulfonyl)-1′,4′-dihydro-2H,2′H-[3,3′-diazetidinylidene]-1(4H)-yl)-3-hydroxy-2-phenylpropan-1-one]
8 | 300 to 1000 | O=C([C@@H](CO)c1ccc(F)cc1)N1CC(=C2CN(S(=O)(=O)c3ccc4ncsc4c3)C2)C1 [Compound 51, (R)-1-(1′-(benzo[d]thiazol-6-ylsulfonyl)-1′,4′-dihydro-2H,2′H-[3,3′-diazetidinylidene]-1(4H)-yl)-2-(4-fluorophenyl)-3-hydroxypropan-1-one]
9 | < 100 | O=C([C@H](CO)c1ccc(F)cc1)N1CC(=C2CN(S(=O)(=O)c3ccccn3)C2)C1 [Compound 54, (S)-2-(4-fluorophenyl)-3-hydroxy-1-(1′-(pyridin-2-ylsulfonyl)-1′,4′-dihydro-2H,2′H-[3,3′-diazetidinylidene]-1(4H)-yl)propan-1-one]
10 | 300 to 1000 | O=C([C@@H](CO)c1ccc(F)cc1)N1CC(=C2CN(S(=O)(=O)c3ccccn3)C2)C1 [Compound 55, (R)-2-(4-fluorophenyl)-3-hydroxy-1-(1′-(pyridin-2-ylsulfonyl)-1′,4′-dihydro-2H,2′H-[3,3′-diazetidinylidene]-1(4H)-yl)propan-1-one]
11 | 101 to 300 | O=C(C(CO)c1ccc(F)c(Cl)c1)N1CC(=C2CN(S(=O)(=O)c3ccccn3)C2)C1 (centres unmarked) [Compound 59, 2-(3-chloro-4-fluorophenyl)-3-hydroxy-1-(1′-(pyridin-2-ylsulfonyl)-1′,4′-dihydro-2H,2′H-[3,3′-diazetidinylidene]-1(4H)-yl)propan-1-one]

— patent publication US20250145635A1, “COMPOUND CONTAINING BIS(AZANYLYLIDENE) SULFONYL STRUCTURE AND USE THEREOF IN MEDICINE” (SCINNOHUB PHARMACEUTICAL CO., LTD., priority 2021, published 2025)
